US20250171438A1 (Agios Pharmaceuticals, Inc., priority 2022, published 2025)

The molecules below were run against T1, human PAH with the R408W mutation (Homo sapiens, UniProt P00439, R408W) (assay: Cell Based Phenylalanine Flux Assay). Settings: A375 cells expressing human R408W PAH; 24 hrs compound incubation; 13C-Tyrosine by LC-MS; average where tested multiple times; read-out: AC50.
T1 construct: expressed in transfected cells
T1 sequence (P00439 1-452 R408W): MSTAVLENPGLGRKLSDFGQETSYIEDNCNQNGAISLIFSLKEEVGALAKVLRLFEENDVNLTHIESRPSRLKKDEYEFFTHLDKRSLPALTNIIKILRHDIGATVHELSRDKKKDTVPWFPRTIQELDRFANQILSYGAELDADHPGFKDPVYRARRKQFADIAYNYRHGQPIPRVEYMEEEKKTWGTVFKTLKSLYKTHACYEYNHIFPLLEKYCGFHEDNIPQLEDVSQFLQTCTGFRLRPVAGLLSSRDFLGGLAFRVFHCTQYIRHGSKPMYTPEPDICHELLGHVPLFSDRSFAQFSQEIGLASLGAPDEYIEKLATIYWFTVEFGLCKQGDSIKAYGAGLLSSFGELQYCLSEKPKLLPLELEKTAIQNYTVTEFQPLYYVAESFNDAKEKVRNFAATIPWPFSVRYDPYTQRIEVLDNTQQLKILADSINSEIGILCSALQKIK

| SMILES | AC50 |
| --- | --- |
| O=C(c1nc(Cl)cs1)N1CCc2[nH]cnc2[C@@H]1c1nc2cccc(F)c2s1 [Example 1264, (R)-(4-chlorothiazol-2-yl)(4-(7-fluorobenzo[d]thiazol-2-yl)-6,7-dihydro-1H-imidazo[4,5-c]pyridin-5(4H)-yl)methanone] | 1 to 5 µM |
| O=C(c1nncs1)N1CCc2[nH]cnc2[C@@H]1c1nc2cccc(F)c2s1 [Example 1265, (R)-(4-(7-fluorobenzo[d]thiazol-2-yl)-6,7-dihydro-1H-imidazo[4,5-c]pyridin-5(4H)-yl)(1,3,4-thiadiazol-2-yl)methanone] | 1 to 5 µM |
| O=C(c1nncs1)N1CCc2[nH]cnc2[C@H]1c1nc2cccc(F)c2s1 [Example 1266, (S)-(4-(7-fluorobenzo[d]thiazol-2-yl)-6,7-dihydro-1H-imidazo[4,5-c]pyridin-5(4H)-yl)(1,3,4-thiadiazol-2-yl)methanone] | < 0.5 µM |
| O=C(c1ncn2ccccc12)N1CCc2[nH]cnc2[C@@H]1c1nc2cccc(F)c2s1 [Example 1267, (R)-(4-(7-fluorobenzo[d]thiazol-2-yl)-6,7-dihydro-1H-imidazo[4,5-c]pyridin-5(4H)-yl)(imidazo[1,5-a]pyridin-1-yl)methanone] | 1 to 5 µM |
| O=C(c1ncn2ccccc12)N1CCc2[nH]cnc2[C@H]1c1nc2cccc(F)c2s1 [Example 1268, (S)-(4-(7-fluorobenzo[d]thiazol-2-yl)-6,7-dihydro-1H-imidazo[4,5-c]pyridin-5(4H)-yl)(imidazo[1,5-a]pyridin-1-yl)methanone] | < 0.5 µM |
| O=C(c1nncs1)N1CCc2[nH]cnc2[C@@H]1c1nc2c(F)cccc2s1 [Example 1269, (R)-(4-(4-fluorobenzo[d]thiazol-2-yl)-6,7-dihydro-1H-imidazo[4,5-c]pyridin-5(4H)-yl)(1,3,4-thiadiazol-2-yl)methanone] | 1 to 5 µM |
| O=C(c1nncs1)N1CCc2[nH]cnc2[C@H]1c1nc2c(F)cccc2s1 [Example 1270, (S)-(4-(4-fluorobenzo[d]thiazol-2-yl)-6,7-dihydro-1H-imidazo[4,5-c]pyridin-5(4H)-yl)(1,3,4-thiadiazol-2-yl)methanone] | 0.5 to 1 µM |
| O=C(CC1CC1(F)F)N1CCc2[nH]cnc2[C@@H]1c1nc2ccccc2s1 (stereo partly drawn) [Example 1272, 1-((R)-4-(benzo[d]thiazol-2-yl)-6,7-dihydro-1H-imidazo[4,5-c]pyridin-5(4H)-yl)-2-(2,2-difluorocyclopropyl)ethenone] | > 5 µM |
| O=C(CC1CC1(F)F)N1CCc2[nH]cnc2[C@@H]1c1nc2ccccc2s1 (stereo partly drawn) [Example 1273, 1-((R)-4-(benzo[d]thiazol-2-yl)-6,7-dihydro-1H-imidazo[4,5-c]pyridin-5(4H)-yl)-2-(2,2-difluorocyclopropyl)ethanone] | > 5 µM |
| c1ccc2sc([C@H]3c4nc[nH]c4CCN3CCC3CC3)nc2c1 [Example 1275, (R)-2-(5-(2-cyclopropylethyl)-4,5,6,7-tetrahydro-1H-imidazo[4,5-c]pyridin-4-yl)benzo[d]thiazole] | 1 to 5 µM |
| c1ccc2sc([C@@H]3c4nc[nH]c4CCN3CCC3CC3)nc2c1 [Example 1276, (S)-2-(5-(2-cyclopropylethyl)-4,5,6,7-tetrahydro-1H-imidazo[4,5-c]pyridin-4-yl)benzo[d]thiazole] | < 0.5 µM |
| O=C(CC1CC(F)(F)C1)N1CCc2[nH]cnc2[C@H]1c1nc2ccccc2s1 [Example 1277] | < 0.5 µM |
| O=C(CC1CC(F)(F)C1)N1CCc2[nH]cnc2[C@@H]1c1nc2ccccc2s1 [Example 1278, (R)-1-(4-(benzo[d]thiazol-2-yl)-6,7-dihydro-1H-imidazo[4,5-c]pyridin-5(4H)-yl)-2-(3,3-difluorocyclobutyl)ethanone] | 1 to 5 µM |
| O=C(c1ncco1)N1CCc2[nH]cnc2[C@H]1c1nc2cccc(F)c2s1 [Example 1279, (S)-(4-(7-fluorobenzo[d]thiazol-2-yl)-6,7-dihydro-1H-imidazo[4,5-c]pyridin-5(4H)-yl)(oxazol-2-yl)methanone] | 1 to 5 µM |
| O=C(c1ncco1)N1CCc2[nH]cnc2[C@@H]1c1nc2cccc(F)c2s1 [Example 1280, (R)-(4-(7-fluorobenzo[d]thiazol-2-yl)-6,7-dihydro-1H-imidazo[4,5-c]pyridin-5(4H)-yl)(oxazol-2-yl)methanone] | 1 to 5 µM |
| O=C(c1cnn2ccc(Br)cc12)N1CCc2[nH]cnc2[C@H]1c1nc2cc(F)ccc2s1 [Example 1281] | 0.5 to 1 µM |
| O=C(c1cnn2ccc(Br)cc12)N1CCc2[nH]cnc2[C@@H]1c1nc2cc(F)ccc2s1 [Example 1282, (R)-(5-bromopyrazolo [1,5-a]pyridin-3-yl)(4-(5-fluorobenzo[d]thiazol-2-yl)-6,7-dihydro-1H-imidazo[4,5-c]pyridin-5(4H)-yl)methanone] | 1 to 5 µM |
| O=C(c1cnn2ccc(Br)cc12)N1CCc2[nH]cnc2[C@H]1c1nc2cccc(F)c2s1 [Example 1283] | < 0.5 µM |

Other lines, results leading:

| AC50 | SMILES |
| --- | --- |
| 1 to 5 µM | O=C(c1cnn2ccc(Br)cc12)N1CCc2[nH]cnc2[C@@H]1c1nc2cccc(F)c2s1 [Example 1284, (R)-(5-bromopyrazolo[1,5-a]pyridin-3-yl)(4-(7-fluorobenzo[d]thiazol-2-yl)-6,7-dihydro-1H-imidazo[4,5-c]pyridin-5(4H)-yl)methanone] |
| 0.5 to 1 µM | Cc1ccc2sc([C@@H]3c4nc[nH]c4CCN3C(=O)c3cncs3)nc2c1 [Example 1293, (S)-(4-(5-methylbenzo[d]thiazol-2-yl)-6,7-dihydro-1H-imidazo[4,5-c]pyridin-5(4H)-yl)(thiazol-5-yl)methanone] |
| 1 to 5 µM | Cc1ccc2sc([C@H]3c4nc[nH]c4CCN3C(=O)c3cncs3)nc2c1 [Example 1294, (R)-(4-(5-methylbenzo[d]thiazol-2-yl)-6,7-dihydro-1H-imidazo[4,5-c]pyridin-5(4H)-yl)(thiazol-5-yl)methanone] |
| 0.5 to 1 µM | Cc1ccc2c(C(=O)N3CCc4[nH]cnc4[C@H]3c3nc4c(C)cccc4s3)cnn2c1 [Example 1295, (S)-(4-(4-methylbenzo[d]thiazol-2-yl)-6,7-dihydro-1H-imidazo[4,5-c]pyridin-5(4H)-yl)(6-methylpyrazolo[1,5-a]pyridin-3-yl)methanone] |
| 1 to 5 µM | Cc1ccc2c(C(=O)N3CCc4[nH]cnc4[C@@H]3c3nc4c(C)cccc4s3)cnn2c1 [Example 1296, (R)-(4-(4-methylbenzo[d]thiazol-2-yl)-6,7-dihydro-1H-imidazo[4,5-c]pyridin-5(4H)-yl)(6-methylpyrazolo[1,5-a]pyridin-3-yl)methanone] |
| 0.5 to 1 µM | O=C(c1nc(Cl)cs1)N1CCc2[nH]cnc2[C@H]1c1nc2cc(F)ccc2s1 [Example 1297] |
| 1 to 5 µM | O=C(c1nc(Cl)cs1)N1CCc2[nH]cnc2[C@@H]1c1nc2cc(F)ccc2s1 [Example 1298, (R)-(4-chlorothiazol-2-yl)(4-(5-fluorobenzo[d]thiazol-2-yl)-6,7-dihydro-1H-imidazo[4,5-c]pyridin-5(4H)-yl)methanone] |
| 1 to 5 µM | O=C(c1nncs1)N1CCc2[nH]cnc2[C@H]1c1nc2cc(F)ccc2s1 [Example 1299, (S)-(4-(5-fluorobenzo[d]thiazol-2-yl)-6,7-dihydro-1H-imidazo[4,5-c]pyridin-5(4H)-yl)(1,3,4-thiadiazol-2-yl)methanone] |
| 1 to 5 µM | O=C(c1nncs1)N1CCc2[nH]cnc2[C@@H]1c1nc2cc(F)ccc2s1 [Example 1300, (R)-(4-(5-fluorobenzo[d]thiazol-2-yl)-6,7-dihydro-1H-imidazo[4,5-c]pyridin-5(4H)-yl)(1,3,4-thiadiazol-2-yl)methanone] |
| < 0.5 µM | O=C(c1cnn2ccc(Cl)cc12)N1CCc2[nH]cnc2[C@H]1c1nc2cccc(F)c2s1 [Example 1301] |
| < 0.5 µM | O=C(c1cnn2ccc(Cl)cc12)N1CCc2[nH]cnc2[C@@H]1c1nc2cccc(F)c2s1 [Example 1302, (R)-(5-chloropyrazolo[1,5-a]pyridin-3-yl)(4-(7-fluorobenzo[d]thiazol-2-yl)-6,7-dihydro-1H-imidazo[4,5-c]pyridin-5(4H)-yl)methanone] |
| 0.5 to 1 µM | Cc1ccc2nc([C@@H]3c4nc[nH]c4CCN3C(=O)c3cncs3)sc2c1 [Example 1303, (S)-(4-(6-methylbenzo[d]thiazol-2-yl)-6,7-dihydro-1H-imidazo[4,5-c]pyridin-5(4H)-yl)(thiazol-5-yl)methanone] |
| > 5 µM | Cc1ccc2nc([C@H]3c4nc[nH]c4CCN3C(=O)c3cncs3)sc2c1 [Example 1304, (R)-(4-(6-methylbenzo[d]thiazol-2-yl)-6,7-dihydro-1H-imidazo[4,5-c]pyridin-5(4H)-yl)(thiazol-5-yl)methanone] |
| 0.5 to 1 µM | Cc1cccc2sc([C@@H]3c4nc[nH]c4CCN3C(=O)c3cncs3)nc12 [Example 1305, (S)-(4-(4-methylbenzo[d]thiazol-2-yl)-6,7-dihydro-1H-imidazo[4,5-c]pyridin-5(4H)-yl)(thiazol-5-yl)methanone] |
| 1 to 5 µM | Cc1cccc2sc([C@H]3c4nc[nH]c4CCN3C(=O)c3cncs3)nc12 [Example 1306, (R)-(4-(4-methylbenzo[d]thiazol-2-yl)-6,7-dihydro-1H-imidazo[4,5-c]pyridin-5(4H)-yl)(thiazol-5-yl)methanone] |
| < 0.5 µM | O=C(CC1CCC1)N1CCc2[nH]cnc2[C@H]1c1nc2ccccc2s1 [Example 1307] |
| 1 to 5 µM | O=C(CC1CCC1)N1CCc2[nH]cnc2[C@@H]1c1nc2ccccc2s1 [Example 1308, (R)-1-(4-(benzo[d]thiazol-2-yl)-6,7-dihydro-1H-imidazo[4,5-c]pyridin-5(4H)-yl)-2-cyclobutylethanone] |
